According to PubChem BioAssay (NCI):
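Interpolation was linear, between the two tested concentrations surrounding the appropriate level; five concentrations were tested over 48 hours in 96-well plates. At the TGI there is no net growth.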

Assays:
Experiment in all cases: NCI-60 cell line screen, 48 h
[1] = test system: ACHN renal
[2] = test system: CAKI-1 renal
[3] = test system: COLO 205 colon
[4] = test system: DU-145 prostate
[5] = test system: HL-60(TB) leukemia
[6] = test system: HS 578T breast
[7] = test system: KM12 colon
[8] = test system: NCI-H226 lung
[9] = test system: NCI-H522 lung
[10] = test system: PC-3 prostate
[11] = test system: SN12C renal
[12] = test system: UACC-257 melanoma

| SMILES | TGI [1] [µM] | TGI [2] [µM] | TGI [3] [µM] | TGI [4] [µM] | TGI [5] [µM] | TGI [6] [µM] | TGI [7] [µM] | TGI [8] [µM] | TGI [9] [µM] | TGI [10] [µM] | TGI [11] [µM] | TGI [12] [µM] |
| --- | --- | --- | --- | --- | --- | --- | --- | --- | --- | --- | --- | --- |
| CC1=Nn2c(nc3sc4c(c3c2=O)CCCC4)SC1 | > 100 | > 100 | > 100 | > 100 | > 87.4 | > 100 | > 100 | > 100 | > 100 | > 100 | > 100 | > 100 |
| CC(NC(=O)c1ccc(OP(=O)(OCC2=CC(=O)c3ccccc3C2=O)N(C)CCCCCl)cc1)c1ccc(OCC2CCCCC2)c(C(N)=O)c1 (centres undefined) | 29.2 | 35.5 | 20.6 | 16.7 | 41.1 | 21.7 | 30.3 | 24.2 | 29 | 58.6 | 26.2 | 18.6 |
